According to ChEMBL document CHEMBL1201862, “PubChem BioAssay data set” (2004):
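How tested: cells in 96-well plates exposed to compound for 48 hours at five concentrations. GI50: concentration for 50% inhibition of growth.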 Active and inactive are the calls of the source. No stated cut-off is given here; in the data, active = GI50 up to about 1.1 µM and inactive = higher.

How the values were obtained:
Assay in all cases: DTP human tumour cell line panel, 48 h
NCI-H460 = system: NCI-H460
A498 = system: A498
KM12 = system: KM12
CAKI-1 = system: CAKI-1
IGROV-1 = system: IGROV-1
SK-OV-3 = system: SK-OV-3
NCI/ADR-RES = system: NCI/ADR-RES
SF-268 = system: SF-268
MDA-MB-435 = system: MDA-MB-435
HCC 2998 = system: HCC 2998
HOP-62 = system: HOP-62
HOP-92 = system: HOP-92
MDA-N = system: MDA-N
PC-3 = system: PC-3
HL-60 = system: HL-60
U-251 = system: U-251
NCI-H23 = system: NCI-H23
SK-MEL-5 = system: SK-MEL-5
Hs-578T = system: Hs-578T
T47D = system: T47D
HT-29 = system: HT-29
SR = system: SR
OVCAR-4 = system: OVCAR-4
786-0 = system: 786-0
OVCAR-5 = system: OVCAR-5
K562 = system: K562
DU-145 = system: DU-145
NCI-H522 = system: NCI-H522
SF-539 = system: SF-539
SK-MEL-2 = system: SK-MEL-2
ACHN = system: ACHN
SW-620 = system: SW-620
SF-295 = system: SF-295
M14 = system: M14
SN12C = system: SN12C
SK-MEL-28 = system: SK-MEL-28
HCT-15 = system: HCT-15
UACC-62 = system: UACC-62
COLO 205 = system: COLO 205
Malme-3M = system: Malme-3M
A549 = system: A549
SNB-19 = system: SNB-19
SNB-75 = system: SNB-75
NCI-H226 = system: NCI-H226
LOX IMVI = system: LOX IMVI
OVCAR-8 = system: OVCAR-8
EKVX = system: EKVX
UACC-257 = system: UACC-257
HCT-116 = system: HCT-116
TK-10 = system: TK-10
OVCAR-3 = system: OVCAR-3
MCF7 = system: MCF7
UO-31 = system: UO-31
MDA-MB-231 = system: MDA-MB-231
BT-549 = system: BT-549
CCRF-CEM = system: CCRF-CEM
RPMI-8226 = system: RPMI-8226
MOLT-4 = system: MOLT-4
RXF 393 = system: RXF 393

Compound: C1CCCCC2(CCCCCCCCC3(CCC1)SCCS3)SCCS2
- GI50 (NCI-H460): > 100 µM (inactive)
- GI50 (A498): > 100 µM (inactive)
- GI50 (KM12): > 100 µM (inactive)
- GI50 (CAKI-1): > 100 µM (inactive)
- GI50 (IGROV-1): > 100 µM (inactive)
- GI50 (SK-OV-3): > 100 µM (inactive)
- GI50 (NCI/ADR-RES): > 100 µM (inactive)
- GI50 (SF-268): > 100 µM (inactive)
- GI50 (MDA-MB-435): > 100 µM (inactive)
- GI50 (HCC 2998): > 100 µM (inactive)
- GI50 (HOP-62): > 100 µM (inactive)
- GI50 (HOP-92): > 100 µM (inactive)
- GI50 (MDA-N): > 100 µM (inactive)
- GI50 (PC-3): > 100 µM (inactive)
- GI50 (HL-60): > 100 µM (inactive)
- GI50 (U-251): > 100 µM (inactive)
- GI50 (NCI-H23): > 100 µM (inactive)
- GI50 (SK-MEL-5): > 100 µM (inactive)
- GI50 (Hs-578T): > 100 µM (inactive)
- GI50 (T47D): > 100 µM (inactive)
- GI50 (HT-29): > 100 µM (inactive)
- GI50 (SR): > 100 µM (inactive)
- GI50 (OVCAR-4): > 100 µM (inactive)
- GI50 (786-0): > 100 µM (inactive)
- GI50 (OVCAR-5): > 100 µM (inactive)
- GI50 (K562): > 100 µM (inactive)
- GI50 (DU-145): > 100 µM (inactive)
- GI50 (NCI-H522): > 100 µM (inactive)
- GI50 (SF-539): > 100 µM (inactive)
- GI50 (SK-MEL-2): > 100 µM (inactive)
- GI50 (ACHN): > 100 µM (inactive)
- GI50 (SW-620): > 100 µM (inactive)
- GI50 (SF-295): > 100 µM (inactive)
- GI50 (M14): > 100 µM (inactive)
- GI50 (SN12C): > 100 µM (inactive)
- GI50 (SK-MEL-28): > 100 µM (inactive)
- GI50 (HCT-15): > 100 µM
- GI50 (UACC-62): > 100 µM (inactive)
- GI50 (COLO 205): > 100 µM (inactive)
- GI50 (Malme-3M): > 100 µM (inactive)
- GI50 (A549): > 100 µM (inactive)
- GI50 (SNB-19): > 100 µM (inactive)
- GI50 (SNB-75): > 100 µM (inactive)
- GI50 (NCI-H226): > 100 µM (inactive)
- GI50 (LOX IMVI): > 100 µM (inactive)
- GI50 (OVCAR-8): > 100 µM (inactive)
- GI50 (EKVX): > 100 µM (inactive)
- GI50 (UACC-257): > 100 µM (inactive)
- GI50 (HCT-116): > 100 µM (inactive)
- GI50 (TK-10): > 100 µM (inactive)
- GI50 (OVCAR-3): > 100 µM (inactive)
- GI50 (MCF7): > 100 µM (inactive)

Compound: O=C(O)c1cc(Cl)cc2c1NC1(N2)C(=O)Nc2ccccc21 (configuration not stated)
- GI50 (NCI-H460): > 100 µM (inactive)
- GI50 (A498): > 100 µM (inactive)
- GI50 (KM12): > 100 µM (inactive)
- GI50 (CAKI-1): > 100 µM (inactive)
- GI50 (IGROV-1): 33.3 µM (inactive)
- GI50 (SK-OV-3): > 100 µM (inactive)
- GI50 (NCI/ADR-RES): > 100 µM (inactive)
- GI50 (SF-268): 62.1 µM (inactive)
- GI50 (UO-31): > 100 µM (inactive)
- GI50 (MDA-MB-435): > 100 µM (inactive)
- GI50 (HCC 2998): > 100 µM (inactive)
- GI50 (HOP-62): > 100 µM (inactive)
- GI50 (HOP-92): > 100 µM (inactive)
- GI50 (MDA-N): > 100 µM (inactive)
- GI50 (PC-3): > 100 µM (inactive)
- GI50 (MDA-MB-231): > 100 µM (inactive)
- GI50 (U-251): 42.5 µM (inactive)
- GI50 (NCI-H23): > 100 µM (inactive)
- GI50 (SK-MEL-5): > 100 µM (inactive)
- GI50 (T47D): > 100 µM (inactive)
- GI50 (HT-29): 78.5 µM (inactive)
- GI50 (BT-549): > 100 µM (inactive)
- GI50 (SR): 65.8 µM (inactive)
- GI50 (OVCAR-4): > 100 µM (inactive)
- GI50 (786-0): > 100 µM (inactive)
- GI50 (OVCAR-5): > 100 µM (inactive)
- GI50 (CCRF-CEM): > 100 µM (inactive)
- GI50 (RPMI-8226): > 100 µM (inactive)
- GI50 (K562): > 100 µM (inactive)
- GI50 (MOLT-4): > 100 µM (inactive)
- GI50 (DU-145): > 100 µM (inactive)
- GI50 (NCI-H522): > 100 µM (inactive)
- GI50 (SF-539): > 100 µM (inactive)
- GI50 (SK-MEL-2): > 100 µM (inactive)
- GI50 (ACHN): > 100 µM (inactive)
- GI50 (SW-620): 73.6 µM (inactive)
- GI50 (SF-295): > 100 µM (inactive)
- GI50 (M14): > 100 µM (inactive)
- GI50 (SN12C): > 100 µM (inactive)
- GI50 (SK-MEL-28): > 100 µM (inactive)
- GI50 (HCT-15): 45.4 µM
- GI50 (UACC-62): > 100 µM (inactive)
- GI50 (COLO 205): > 100 µM (inactive)
- GI50 (Malme-3M): 69.2 µM (inactive)
- GI50 (A549): > 100 µM (inactive)
- GI50 (SNB-19): > 100 µM (inactive)
- GI50 (SNB-75): 97.1 µM (inactive)
- GI50 (NCI-H226): > 100 µM (inactive)
- GI50 (LOX IMVI): 49 µM (inactive)
- GI50 (OVCAR-8): 39.6 µM (inactive)
- GI50 (RXF 393): 52.6 µM (inactive)
- GI50 (EKVX): > 100 µM (inactive)
- GI50 (UACC-257): > 100 µM (inactive)
- GI50 (HCT-116): 56.4 µM (inactive)
- GI50 (TK-10): > 100 µM (inactive)
- GI50 (OVCAR-3): > 100 µM (inactive)
- GI50 (MCF7): > 100 µM (inactive)

Compound: C=C[C@@]1(C)CC(=O)[C@]2(O)[C@@]3(C)[C@@H](OC(C)=O)CCC(C)(C)[C@@H]3[C@H](OC(C)=O)[C@H](OC(C)=O)[C@@]2(C)O1
- GI50 (NCI-H460): > 100 µM (inactive)
- GI50 (A498): > 100 µM (inactive)
- GI50 (KM12): 36.1 µM (inactive)
- GI50 (CAKI-1): > 100 µM (inactive)
- GI50 (IGROV-1): 56.6 µM (inactive)
- GI50 (SK-OV-3): > 100 µM (inactive)
- GI50 (NCI/ADR-RES): > 100 µM (inactive)
- GI50 (UO-31): > 100 µM (inactive)
- GI50 (MDA-MB-435): > 100 µM (inactive)
- GI50 (HCC 2998): > 100 µM (inactive)
- GI50 (HOP-62): > 100 µM (inactive)
- GI50 (HOP-92): > 100 µM (inactive)
- GI50 (MDA-N): > 100 µM (inactive)
- GI50 (PC-3): > 100 µM (inactive)
- GI50 (MDA-MB-231): > 100 µM (inactive)
- GI50 (U-251): > 100 µM (inactive)
- GI50 (NCI-H23): > 100 µM (inactive)
- GI50 (T47D): > 100 µM (inactive)
- GI50 (HT-29): > 100 µM (inactive)
- GI50 (BT-549): > 100 µM (inactive)
- GI50 (SR): > 100 µM (inactive)
- GI50 (OVCAR-4): > 100 µM (inactive)
- GI50 (786-0): > 100 µM (inactive)
- GI50 (OVCAR-5): > 100 µM (inactive)
- GI50 (K562): > 100 µM (inactive)
- GI50 (MOLT-4): 51.4 µM (inactive)
- GI50 (DU-145): > 100 µM (inactive)
- GI50 (SF-539): > 100 µM (inactive)
- GI50 (SK-MEL-2): > 100 µM (inactive)
- GI50 (ACHN): > 100 µM (inactive)
- GI50 (SW-620): > 100 µM (inactive)
- GI50 (SF-295): > 100 µM (inactive)
- GI50 (M14): > 100 µM (inactive)
- GI50 (SN12C): > 100 µM (inactive)
- GI50 (SK-MEL-28): > 100 µM (inactive)
- GI50 (HCT-15): > 100 µM
- GI50 (UACC-62): > 100 µM (inactive)
- GI50 (A549): > 100 µM (inactive)
- GI50 (SNB-19): > 100 µM (inactive)
- GI50 (SNB-75): > 100 µM (inactive)
- GI50 (NCI-H226): > 100 µM (inactive)
- GI50 (LOX IMVI): > 100 µM (inactive)
- GI50 (OVCAR-8): > 100 µM (inactive)
- GI50 (EKVX): > 100 µM (inactive)
- GI50 (UACC-257): > 100 µM (inactive)
- GI50 (HCT-116): > 100 µM (inactive)
- GI50 (OVCAR-3): > 100 µM (inactive)
- GI50 (MCF7): > 100 µM (inactive)
